What was measured:
αvβ6 = αvβ6 (Homo sapiens, UniProt P06756+P18564); test: Solid Phase Integrin αvβ6 Assay; type: binding
Outline: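 Inhibition of αvβ6 binding to immobilized recombinant TGFb1-LAP (1 μg/mL coating), 1 h at room temperature with 1 mM MnCl2 in BSA/TBST buffer, integrin diluted to 0.2 μg/mL before addition. Streptavidin-HRP/TMB read-out; four-parameter logistic fitting gave IC50.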

αvβ1 = αvβ1 (Homo sapiens, UniProt P05556+P06756); test: Solid Phase Integrin αvβ1 Assay; type: binding
Outline: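 Compound competes for αvβ1 binding to immobilized TGFb1-LAP (1 µg/mL coat) in Mn2+ (1 mM MnCl2), 2% BSA binding buffer over 90 min at room temperature, integrin added at 0.2 µg/mL. Read-out: streptavidin-HRP/TMB; IC50 from Levenberg-Marquardt four-parameter fit.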

αvβ6, sequence (P06756 31-992 limits assumed): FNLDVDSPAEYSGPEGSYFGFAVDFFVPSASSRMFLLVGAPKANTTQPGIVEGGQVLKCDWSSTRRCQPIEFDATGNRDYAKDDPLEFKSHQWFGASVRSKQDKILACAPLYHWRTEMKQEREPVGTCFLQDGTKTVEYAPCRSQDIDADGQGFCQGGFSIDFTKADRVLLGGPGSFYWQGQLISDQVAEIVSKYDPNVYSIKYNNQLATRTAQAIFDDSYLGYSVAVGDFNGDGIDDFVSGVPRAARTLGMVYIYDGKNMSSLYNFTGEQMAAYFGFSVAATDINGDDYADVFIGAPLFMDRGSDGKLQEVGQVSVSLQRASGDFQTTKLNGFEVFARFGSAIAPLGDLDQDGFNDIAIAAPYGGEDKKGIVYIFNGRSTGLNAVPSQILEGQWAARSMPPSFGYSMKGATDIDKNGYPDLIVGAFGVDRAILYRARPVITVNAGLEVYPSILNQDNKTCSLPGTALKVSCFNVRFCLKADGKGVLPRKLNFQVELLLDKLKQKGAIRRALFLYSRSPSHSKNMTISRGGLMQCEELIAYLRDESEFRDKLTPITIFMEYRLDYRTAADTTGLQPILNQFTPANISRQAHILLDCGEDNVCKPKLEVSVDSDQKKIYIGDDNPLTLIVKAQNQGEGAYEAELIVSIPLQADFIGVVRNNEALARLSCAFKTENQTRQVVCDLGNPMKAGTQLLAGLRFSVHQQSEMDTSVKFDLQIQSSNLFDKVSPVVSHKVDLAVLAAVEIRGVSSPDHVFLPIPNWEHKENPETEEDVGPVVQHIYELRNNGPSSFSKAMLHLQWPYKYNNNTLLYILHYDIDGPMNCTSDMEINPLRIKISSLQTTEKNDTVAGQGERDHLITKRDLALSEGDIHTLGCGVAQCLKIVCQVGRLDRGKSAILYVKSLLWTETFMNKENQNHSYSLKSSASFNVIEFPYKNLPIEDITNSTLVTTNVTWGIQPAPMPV
αvβ6, sequence (P18564 22-707 limits assumed): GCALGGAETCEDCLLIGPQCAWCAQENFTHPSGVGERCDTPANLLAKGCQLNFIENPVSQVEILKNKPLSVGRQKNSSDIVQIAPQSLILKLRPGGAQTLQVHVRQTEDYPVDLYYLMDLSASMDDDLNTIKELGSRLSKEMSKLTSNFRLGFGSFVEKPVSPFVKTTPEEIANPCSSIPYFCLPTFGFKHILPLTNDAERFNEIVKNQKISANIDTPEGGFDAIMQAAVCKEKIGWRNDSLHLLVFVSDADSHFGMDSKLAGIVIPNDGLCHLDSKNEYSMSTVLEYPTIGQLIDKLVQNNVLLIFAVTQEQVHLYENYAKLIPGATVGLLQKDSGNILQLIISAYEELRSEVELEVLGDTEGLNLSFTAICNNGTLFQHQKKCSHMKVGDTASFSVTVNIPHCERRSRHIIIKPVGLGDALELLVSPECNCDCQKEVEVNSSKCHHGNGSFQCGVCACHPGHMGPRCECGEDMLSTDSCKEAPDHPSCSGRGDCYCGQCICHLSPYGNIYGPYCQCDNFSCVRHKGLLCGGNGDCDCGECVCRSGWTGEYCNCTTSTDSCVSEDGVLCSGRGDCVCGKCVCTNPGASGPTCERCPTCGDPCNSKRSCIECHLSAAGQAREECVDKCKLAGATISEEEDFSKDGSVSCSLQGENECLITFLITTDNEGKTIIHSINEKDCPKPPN
αvβ1, sequence (P06756 31-992 limits assumed): as the sequence (P06756 31-992 limits assumed) above
αvβ1, sequence (P05556 21-728 limits assumed): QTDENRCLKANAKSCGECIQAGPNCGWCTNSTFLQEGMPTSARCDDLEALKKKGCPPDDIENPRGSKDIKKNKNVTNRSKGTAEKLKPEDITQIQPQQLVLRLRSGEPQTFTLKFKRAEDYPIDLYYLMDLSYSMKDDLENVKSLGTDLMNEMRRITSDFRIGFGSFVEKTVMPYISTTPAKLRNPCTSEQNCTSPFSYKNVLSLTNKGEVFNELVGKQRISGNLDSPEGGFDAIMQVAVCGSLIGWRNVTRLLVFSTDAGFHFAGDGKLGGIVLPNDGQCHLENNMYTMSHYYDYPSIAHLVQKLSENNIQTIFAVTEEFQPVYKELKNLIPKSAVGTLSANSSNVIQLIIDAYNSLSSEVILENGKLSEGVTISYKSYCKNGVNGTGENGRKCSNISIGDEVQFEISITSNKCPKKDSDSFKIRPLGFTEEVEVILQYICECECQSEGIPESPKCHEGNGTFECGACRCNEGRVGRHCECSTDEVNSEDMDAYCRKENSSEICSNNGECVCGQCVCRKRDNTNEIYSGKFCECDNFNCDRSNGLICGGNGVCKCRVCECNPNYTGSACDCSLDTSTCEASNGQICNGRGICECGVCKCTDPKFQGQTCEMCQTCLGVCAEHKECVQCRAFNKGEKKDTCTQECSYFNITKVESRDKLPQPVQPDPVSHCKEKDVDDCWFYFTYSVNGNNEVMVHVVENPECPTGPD

Compound	IC50 (αvβ6)	IC50 (αvβ1)
O=C(CC[C@H](NC(=O)[C@@H]1CCCN1S(=O)(=O)c1ccccc1)C(=O)O)N[C@H]1CCN(C(=O)CCCc2ccc3c(n2)NCCC3)C1 [Compound 439]	100 to 1000 nM	< 100 nM
O=C(CC[C@@H](NC(=O)[C@H]1CCCN1S(=O)(=O)c1ccccc1)C(=O)O)N[C@H]1CCN(C(=O)CCCc2ccc3c(n2)NCCC3)C1 [Compound 440]	> 1000 nM	100 to 1000 nM
O=C(CC[C@@H](NC(=O)[C@@H]1CCCN1S(=O)(=O)c1ccccc1)C(=O)O)N[C@H]1CCN(C(=O)CCCc2ccc3c(n2)NCCC3)C1 [Compound 441]	> 1000 nM	< 100 nM
O=C(O)C[C@H](CO[C@H]1CCCN(CCCc2ccc3c(n2)NCCC3)C1)c1ccccc1 [Compound 442]	100 to 1000 nM	100 to 1000 nM
O=C(O)[C@@H](CCO[C@H]1CCCN(CCCc2ccc3c(n2)NCCC3)C1)NC(=O)C12CCC(CC1)CC2 [Compound 443]	100 to 1000 nM	100 to 1000 nM
O=C(O)[C@@H](CCO[C@H]1CCCN(CCCc2ccc3c(n2)NCCC3)C1)Nc1ncnc2ccccc12 [Compound 444]	> 1000 nM	> 1000 nM
O=C(O)C[C@@H](CO[C@H]1CCCN(CCCc2ccc3c(n2)NCCC3)C1)c1ccccc1 [Compound 445]	100 to 1000 nM	100 to 1000 nM
O=C(O)[C@H](CCO[C@H]1CCCN(CCCc2ccc3c(n2)NCCC3)C1)Nc1ncnc2ccccc12 [Compound 446]	< 100 nM	100 to 1000 nM
O=C(O)[C@H](CCO[C@H]1CCCN(CCCc2ccc3c(n2)NCCC3)C1)NC(=O)C12CCC(CC1)CC2 [Compound 447]	< 100 nM	< 100 nM
CN1CCc2ccc(S(=O)(=O)N[C@@H](CNC(=O)[C@@H]3CCCN(CCCc4ccc5c(n4)NCCC5)C3)C(=O)O)cc21 [Compound 448]	< 100 nM	< 100 nM
O=C(NC[C@@H](Nc1cc(-c2ccccc2)ncn1)C(=O)O)[C@@H]1CCCN(CCCc2ccc3c(n2)NCCC3)C1 [Compound 449]	< 100 nM	< 100 nM
CN1CCc2cc(S(=O)(=O)N[C@H](CNC(=O)[C@@H]3CCCN(CCCc4ccc5c(n4)NCCC5)C3)C(=O)O)ccc21 [Compound 450]	100 to 1000 nM	> 1000 nM
O=C(NC[C@H](Nc1ncc(C(F)(F)F)cn1)C(=O)O)[C@@H]1CCCN(CCCc2ccc3c(n2)NCCC3)C1 [Compound 451]	< 100 nM	< 100 nM
O=C(O)[C@](O)(CO[C@@H]1CCCN(CCCc2ccc3c(n2)NCCC3)C1)c1ccccc1 [Compound 452]	> 1000 nM	> 1000 nM
O=C(O)[C@@](O)(CO[C@@H]1CCCN(CCCc2ccc3c(n2)NCCC3)C1)c1ccccc1 [Compound 453]	> 1000 nM	> 1000 nM
O=C(O)[C@@](O)(CO[C@@H]1CCCN(CCCCc2ccc3c(n2)NCCC3)C1)c1ccccc1 [Compound 454]	> 1000 nM	> 1000 nM
O=C(O)[C@](O)(CO[C@@H]1CCCN(CCCCc2ccc3c(n2)NCCC3)C1)c1ccccc1 [Compound 455]	> 1000 nM	> 1000 nM
O=C(O)C[C@H](CO[C@@H]1CCCN(CCCc2ccc3c(n2)NCCC3)C1)c1cccc(-c2ccccc2)c1 [Compound 456]	< 100 nM	< 100 nM
O=C(O)C[C@@H](CO[C@@H]1CCCN(CCCc2ccc3c(n2)NCCC3)C1)c1cccc(-c2ccccc2)c1 [Compound 457]	100 to 1000 nM	> 1000 nM
O=C(O)C[C@H](CO[C@@H]1CCCN(CCCc2ccc3c(n2)NCCC3)C1)c1ccc(-c2ccccc2)cc1 [Compound 458]	< 100 nM	< 100 nM
O=C(O)C[C@@H](CO[C@@H]1CCCN(CCCc2ccc3c(n2)NCCC3)C1)c1ccc(-c2ccccc2)cc1 [Compound 459]	100 to 1000 nM	> 1000 nM
O=C(O)C[C@H](CO[C@@H]1CCCN(CCCc2ccc3c(n2)NCCC3)C1)c1ccccc1-c1ccccc1 [Compound 460]	> 1000 nM	> 1000 nM
O=C(O)C[C@@H](CO[C@@H]1CCCN(CCCc2ccc3c(n2)NCCC3)C1)c1ccccc1-c1ccccc1 [Compound 461]	> 1000 nM	> 1000 nM
O=C(O)C[C@H](CO[C@@H]1CCCN(CCCc2ccc3c(n2)NCCC3)C1)c1cccc(N2C[C@@H]3CC[C@H]2CO3)c1 [Compound 462]	< 100 nM	< 100 nM
O=C(O)C[C@H](CO[C@@H]1CCCN(CCCc2ccc3c(n2)NCCC3)C1)c1cccc(N2C[C@H]3CC[C@@H]2CO3)c1 [Compound 463]	100 to 1000 nM	100 to 1000 nM
O=C(O)C[C@@H](CO[C@@H]1CCCN(CCCc2ccc3c(n2)NCCC3)C1)c1cccc(N2C[C@@H]3CC[C@H]2CO3)c1 [Compound 464]	100 to 1000 nM	100 to 1000 nM
O=C(O)C[C@@H](CO[C@@H]1CCCN(CCCc2ccc3c(n2)NCCC3)C1)c1cccc(N2C[C@H]3CC[C@@H]2CO3)c1 [Compound 465]	< 100 nM	< 100 nM

Compound	IC50 (αvβ6)	IC50 (αvβ1)
O=C(N[C@@H](CCO[C@@H]1CCCN(CCCc2ccc3c(n2)NCCC3)C1)C(=O)O)c1c(F)cc(N2CCOC[C@@H]2C(F)(F)F)cc1F [Compound 466]	100 to 1000 nM	< 100 nM
O=C(N[C@@H](CCO[C@@H]1CCCN(CCCc2ccc3c(n2)NCCC3)C1)C(=O)O)c1c(F)cc(N2CCOCC2)cc1F [Compound 467]	< 100 nM	< 100 nM
O=C(N[C@@H](CCO[C@@H]1CCCN(CCCc2ccc3c(n2)NCCC3)C1)C(=O)O)c1c(F)cccc1F [Compound 468]	< 100 nM	< 100 nM
O=C(N[C@@H](CCO[C@@H]1CCCN(CCCc2ccc3c(n2)NCCC3)C1)C(=O)O)c1ccccc1 [Compound 469]	< 100 nM	< 100 nM
O=C(O)[C@H](CCO[C@@H]1CCCN(CCCc2ccc3c(n2)NCCC3)C1)Nc1ncnc2ccsc12 [Compound 470]	100 to 1000 nM	100 to 1000 nM
Cc1csc2c(N[C@@H](CCO[C@@H]3CCCN(CCCc4ccc5c(n4)NCCC5)C3)C(=O)O)ncnc12 [Compound 471]	100 to 1000 nM	100 to 1000 nM
O=C(O)[C@H](CCO[C@@H]1CCCN(CCCc2ccc3c(n2)NCCC3)C1)Nc1ncnc2sccc12 [Compound 472]	< 100 nM	> 1000 nM
Cc1csc2ncnc(N[C@@H](CCO[C@@H]3CCCN(CCCc4ccc5c(n4)NCCC5)C3)C(=O)O)c12 [Compound 473]	> 1000 nM	> 1000 nM
O=C(O)[C@H](CCO[C@@H]1CCCN(CCCc2ccc3c(n2)NCCC3)C1)Nc1ncnc2cc(F)c(F)cc12 [Compound 474]	< 100 nM	100 to 1000 nM
O=C(O)[C@H](CCO[C@@H]1CCCN(CCCc2ccc3c(n2)NCCC3)C1)Nc1ncnc2cc(C(F)(F)F)ccc12 [Compound 475]	> 1000 nM	> 1000 nM
O=C(O)[C@H](CCO[C@@H]1CCCN(CCCc2ccc3c(n2)NCCC3)C1)NC(=O)[C@@H]1CCCN1S(=O)(=O)c1ccccc1 [Compound 476]	< 100 nM	< 100 nM
O=C(O)[C@@](O)(CO[C@@H]1CCCN(Cc2ccc3c(n2)NCCC3)C1)c1ccccc1 [Compound 477]	> 1000 nM	> 1000 nM
O=C(O)[C@](O)(CO[C@@H]1CCCN(Cc2ccc3c(n2)NCCC3)C1)c1ccccc1 [Compound 478]	> 1000 nM	> 1000 nM
O=C(N[C@H](CCO[C@@H]1CCCN(CCCc2ccc3c(n2)NCCC3)C1)C(=O)O)c1ccccc1 [Compound 479]	100 to 1000 nM	100 to 1000 nM
O=C(N[C@H](CCO[C@@H]1CCCN(CCCc2ccc3c(n2)NCCC3)C1)C(=O)O)c1c(F)cccc1F [Compound 480]	100 to 1000 nM	100 to 1000 nM
O=C(O)C[C@H](CO[C@@H]1CCCN(CCCc2ccc3c(n2)NCCC3)C1)c1cc(C2CC2)ccc1F [Compound 481]	< 100 nM	< 100 nM
O=C(O)C[C@H](CO[C@@H]1CCCN(CCCc2ccc3c(n2)NCCC3)C1)c1cccc(N2CCCC2=O)c1 [Compound 482]	< 100 nM	< 100 nM
O=C(O)C[C@H](CO[C@@H]1CCCN(CCCc2ccc3c(n2)NCCC3)C1)c1cc(F)cc(C2CC2)c1 [Compound 483]	< 100 nM	< 100 nM
O=C(O)[C@@H](CCO[C@@H]1CCCN(CCCc2ccc3c(n2)NCCC3)C1)c1ccc(C2CC2)cc1 [Compound 484]	> 1000 nM	> 1000 nM
O=C(O)[C@@H](CCO[C@@H]1CCCN(CCCc2ccc3c(n2)NCCC3)C1)c1ccc(F)c(-c2ccccc2)c1 [Compound 485]	> 1000 nM	> 1000 nM
O=C(O)[C@@H](CCO[C@@H]1CCCN(CCCc2ccc3c(n2)NCCC3)C1)c1cccc2c1cnn2CC1CC1 [Compound 486]	< 100 nM	100 to 1000 nM
O=C(O)[C@@H](CCO[C@@H]1CCCN(CCCc2ccc3c(n2)NCCC3)C1)c1cccc2nn(CC3CC3)cc12 [Compound 487]	< 100 nM	< 100 nM
O=C(N[C@@H](CCO[C@@H]1CCCN(CCCc2ccc3c(n2)NCCC3)C1)C(=O)O)c1cc(Cl)cc(Cl)c1 [Compound 488]	< 100 nM	< 100 nM
O=C(O)C[C@H](CO[C@@H]1CCCN(CCCc2ccc3c(n2)NCCC3)C1)c1cncc(C2CC2)c1 [Compound 489]	< 100 nM	< 100 nM
O=C(O)C[C@H](CO[C@@H]1CCCN(CCCc2ccc3c(n2)NCCC3)C1)c1ccnc(C2CC2)c1 [Compound 490]	< 100 nM	< 100 nM
O=C(O)C[C@H](CO[C@@H]1CCCN(CCCc2ccc3c(n2)NCCC3)C1)c1cccc([C@@H]2CCOC2)c1 [Compound 491]	< 100 nM	< 100 nM
O=C(O)C[C@H](CO[C@@H]1CCCN(CCCc2ccc3c(n2)NCCC3)C1)c1cccc(-n2cccn2)c1 [Compound 492]	< 100 nM	< 100 nM

From patent US20240208968A1, “ALPHA V BETA 6 AND ALPHA V BETA 1 INTEGRIN INHIBITORS AND USES THEREOF” (DiCE Molecules SV, Inc., priority 2021, published 2024)
